Molecular target: T1, 5-hydroxytryptamine receptor 1A (Rattus norvegicus, UniProt P19327)
T1 sequence (P19327 whole entry): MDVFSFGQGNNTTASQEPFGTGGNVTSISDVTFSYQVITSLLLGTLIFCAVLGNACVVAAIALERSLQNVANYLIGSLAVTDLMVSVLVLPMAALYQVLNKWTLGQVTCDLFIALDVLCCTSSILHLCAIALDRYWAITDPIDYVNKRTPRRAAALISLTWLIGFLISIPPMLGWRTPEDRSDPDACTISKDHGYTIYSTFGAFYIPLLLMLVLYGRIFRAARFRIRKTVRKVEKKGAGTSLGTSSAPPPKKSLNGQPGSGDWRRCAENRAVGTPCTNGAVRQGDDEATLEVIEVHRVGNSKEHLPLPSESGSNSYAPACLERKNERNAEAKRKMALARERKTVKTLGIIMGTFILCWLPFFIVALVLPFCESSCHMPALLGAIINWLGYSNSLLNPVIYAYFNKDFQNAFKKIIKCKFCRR
Assay: Displacement of [3H]8-OH-DPAT from 5HT1A receptor in rat hippocampal membranes

Compound: CC1CC2(C)CC(=O)C1C1C(=O)N(OCCCN3CCN(c4ccccc4F)CC3)C(=O)C12 (stereo unspecified) [4-{3-[4-(2-Fluorophenyl)piperazin-1-yl]propoxy}-1,11-dimethyl-4-azatricyclo[5.2.2.0(2,6)]undecane-3,5,8-trione]
- Ki: 331 nM
